Assay results as given in ChEMBL document CHEMBL5370557, “Structure-based discovery of IHMT-IDH1-053 as a potent irreversible IDH1 mutant selective inhibitor” (Eur J Med Chem, 2023).

Key:
[1] = target: Isocitrate dehydrogenase [NADP], mitochondrial (Homo sapiens, UniProt P48735, R172K); experiment: Inhibition of IDH2 R172K mutant (unknown origin) expressed in Escherichia coli BL21 (DE3) assessed as NADPH consumption using alpha-KG as substrate measured after 60 mins
[2] = target: Isocitrate dehydrogenase [NADP], mitochondrial (Homo sapiens, UniProt P48735, R140Q); experiment: Inhibition of IDH2 R140Q mutant (unknown origin) expressed in Escherichia coli BL21 (DE3) assessed as NADPH consumption using alpha-KG as substrate measured after 60 mins
Chain of Isocitrate dehydrogenase [NADP], mitochondrial (Homo sapiens, UniProt P48735, R140Q) (P48735 40-452 R140Q limits assumed): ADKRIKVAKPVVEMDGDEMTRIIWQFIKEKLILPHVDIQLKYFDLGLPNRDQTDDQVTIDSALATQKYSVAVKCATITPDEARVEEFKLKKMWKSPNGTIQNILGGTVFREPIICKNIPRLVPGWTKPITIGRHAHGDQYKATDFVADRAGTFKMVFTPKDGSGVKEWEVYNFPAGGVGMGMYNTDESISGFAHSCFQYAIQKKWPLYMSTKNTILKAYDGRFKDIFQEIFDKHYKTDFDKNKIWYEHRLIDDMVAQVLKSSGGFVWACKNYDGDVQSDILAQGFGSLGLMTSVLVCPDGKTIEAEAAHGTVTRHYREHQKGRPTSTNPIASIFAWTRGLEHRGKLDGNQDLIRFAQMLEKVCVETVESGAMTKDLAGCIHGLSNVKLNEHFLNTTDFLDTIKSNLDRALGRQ

[3] = target: T1, Isocitrate dehydrogenase [NADP], mitochondrial (Homo sapiens, UniProt P48735); experiment: Inhibition of wild type IDH2 (unknown origin) expressed in Escherichia coli BL21 (DE3) assessed as NADPH consumption using alpha-KG as substrate measured after 60 mins
T1 sequence (P48735 whole entry): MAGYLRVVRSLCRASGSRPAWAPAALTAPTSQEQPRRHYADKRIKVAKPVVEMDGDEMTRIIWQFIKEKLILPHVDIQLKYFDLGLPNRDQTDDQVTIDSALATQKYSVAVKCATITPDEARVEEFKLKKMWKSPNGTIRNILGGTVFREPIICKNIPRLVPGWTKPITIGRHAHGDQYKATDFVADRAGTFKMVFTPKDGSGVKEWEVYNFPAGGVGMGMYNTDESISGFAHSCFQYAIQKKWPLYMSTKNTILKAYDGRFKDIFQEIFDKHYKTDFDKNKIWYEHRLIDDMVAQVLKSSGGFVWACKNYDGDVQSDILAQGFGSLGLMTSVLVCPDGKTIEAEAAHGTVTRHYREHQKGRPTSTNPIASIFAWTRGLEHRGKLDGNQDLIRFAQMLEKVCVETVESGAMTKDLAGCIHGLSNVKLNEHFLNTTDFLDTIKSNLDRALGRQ

[4] = target: T2, Isocitrate dehydrogenase [NADP] cytoplasmic (Homo sapiens, UniProt O75874, R132H); experiment: Inhibition of IDH1 R132H mutant (unknown origin) expressed in Escherichia coli BL21 (DE3) assessed as NADPH consumption using alpha-KG as substrate measured after 60 mins
T2 sequence (O75874 2-414 R132H limits assumed): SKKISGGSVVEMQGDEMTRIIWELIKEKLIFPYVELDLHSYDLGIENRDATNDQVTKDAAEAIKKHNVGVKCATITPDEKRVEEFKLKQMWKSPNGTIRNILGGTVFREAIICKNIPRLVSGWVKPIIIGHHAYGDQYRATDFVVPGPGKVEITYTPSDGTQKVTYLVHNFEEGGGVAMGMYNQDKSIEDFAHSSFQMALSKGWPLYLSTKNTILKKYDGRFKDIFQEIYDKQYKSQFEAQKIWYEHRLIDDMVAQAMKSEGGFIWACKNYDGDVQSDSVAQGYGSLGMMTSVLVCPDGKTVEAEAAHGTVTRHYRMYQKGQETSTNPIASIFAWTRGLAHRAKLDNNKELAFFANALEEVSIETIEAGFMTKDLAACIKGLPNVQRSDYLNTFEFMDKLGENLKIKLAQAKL

[5] = target: T2, Isocitrate dehydrogenase [NADP] cytoplasmic; experiment: Inhibition of IDH1 R132H mutant (unknown origin) expressed in HEK293T cells assessed as inhibition of 2-HG generation measured after 48 hrs by LC-MS/MS analysis; format: cell-based

Chain of Isocitrate dehydrogenase [NADP], mitochondrial (Homo sapiens, UniProt P48735, R172K) (P48735 40-452 R172K limits assumed): as the sequence (P48735 40-452 R140Q limits assumed) above, with Q101R, R133K counted along it

SMILES | IC50 [4] | IC50 [5] | also measured
N#Cc1ccnc(N2C(=O)CC[C@H]2C(=O)N(c2cncc(F)c2)[C@H](C(=O)NC2CC(F)(F)C2)c2ccccc2Cl)c1 [IVOSIDENIB] |  |  | IC50 [1]: > 10 µM; IC50 [2]: > 10 µM; IC50 [3]: > 10 µM
C=CS(=O)(=O)Nc1ccc(Nc2ccc([C@H](C)Nc3ncc(F)c(N4C(=O)OC[C@@H]4C(C)C)n3)cc2)cc1N(C)C | 0.048 µM | 1.25 µM | 
CC(C)[C@H]1COC(=O)N1c1nc(N[C@@H](C)c2ccc(N3CCCC(NC(=O)CCl)C3)cc2)ncc1F (stereo partly drawn) | 0.516 µM |  | 
C=CS(=O)(=O)Nc1ccc(Nc2ccc([C@H](C)Nc3ncc(F)c(N4C(=O)OC[C@@H]4C(C)C)n3)cc2)cc1OC | 0.055 µM | 4.75 µM | 
CCC(=O)Nc1ccc(Nc2ccc([C@H](C)Nc3ncc(F)c(N4C(=O)OC[C@@H]4C(C)C)n3)cc2)cc1N1CCOCC1 | > 10 µM | 10 µM | 
C=CS(=O)(=O)Nc1ccc(Nc2ccc([C@H](C)Nc3ncc(F)c(N4C(=O)OC[C@@H]4C(C)C)n3)cc2)cc1F | 0.0059 µM | 0.045 µM | 
CC(C)[C@H]1COC(=O)N1c1nc(N[C@@H](C)c2ccc(N3CCC(NC(=O)CCl)CC3)cc2)ncc1F | 0.087 µM |  | 
C=CC(=O)NC1CCCN(c2ccc([C@H](C)Nc3ncc(F)c(N4C(=O)OC[C@@H]4C(C)C)n3)cc2)C1 (stereo partly drawn) | 0.44 µM | 0.295 µM | 
CCC(=O)Nc1cc(-c2ccc([C@H](C)Nc3ncc(F)c(N4C(=O)OC[C@@H]4C(C)C)n3)cc2)ccc1N(C)C | 0.741 µM |  | 
C=CS(=O)(=O)Nc1ccc(Nc2ccc([C@H](C)Nc3nccc(N4C(=O)OC[C@@H]4C(C)C)n3)cc2)cc1N1CCN(CC)CC1 | 0.547 µM |  | 
C=CS(=O)(=O)N1CCC(Nc2ccc([C@H](C)Nc3nccc(N4C(=O)OC[C@@H]4C(C)C)n3)cc2)CC1 | 0.161 µM | 0.171 µM | 
CCS(=O)(=O)N1CCC(Nc2ccc([C@H](C)Nc3nccc(N4C(=O)OC[C@@H]4C(C)C)n3)cc2)CC1 | 0.594 µM |  | 
C=CC(=O)Nc1cc(Nc2ccc([C@H](C)Nc3ncc(F)c(N4C(=O)OC[C@@H]4C(C)C)n3)cc2)ccc1N(C)C | 0.155 µM | 0.114 µM | 
CCS(=O)(=O)NC1CCN(c2ccc([C@H](C)Nc3ncc(F)c(N4C(=O)OC[C@@H]4C(C)C)n3)cc2)CC1 | 0.143 µM | 1.47 µM | 
C=CS(=O)(=O)N1CCC(Nc2ccc([C@H](C)Nc3ncc(F)c(N4C(=O)OC[C@@H]4C(C)C)n3)cc2)CC1 | 0.042 µM | 0.129 µM | 
C=CS(=O)(=O)NC1CCN(c2ccc([C@H](C)Nc3ncc(C#N)cn3)cc2)CC1 | 4.49 µM |  | 
C=CS(=O)(=O)Nc1ccc(Nc2ccc([C@H](C)Nc3ncc(F)c(N4C(=O)OC[C@@H]4C(C)C)n3)cc2)cc1N1CCOCC1 | 0.087 µM | 1.5 µM | 
C=CC(=O)NC1CCN(c2ccc([C@H](C)Nc3nccc(N4C(=O)OC[C@@H]4C(C)C)n3)cc2)CC1 | 6.51 µM |  | 
C=CS(=O)(=O)NC1CCCN(c2ccc([C@H](C)Nc3ncc(F)c(N4C(=O)OC[C@@H]4C(C)C)n3)cc2)C1 (stereo partly drawn) | 0.119 µM | 0.214 µM | 
C=CC(=O)Nc1cc(-c2ccc([C@H](C)Nc3ncc(F)c(N4C(=O)OC[C@@H]4C(C)C)n3)cc2)ccc1N(C)C | 0.63 µM |  | 
